≈ marks a conversion by molar mass, not a printed value. Values belong to the molecule of their own block, whether it stands above or below them.
Legend:
[1] = tested on: C. albicans ATCC 90819(R) (strain D); experiment: MIC, broth microdilution (CLSI M27-A3), yeast strain D; format: cell-based; conditions: Candida albicans, ATCC90819; MIC-0, strain D, 35 °C 48 h
Method: (§1) The final concentrations of compounds 3, 4, 7a, 7b, 9, and 16, as well as that of TOB tested in this study ranged from 0.24–62.5 μg/mL. CAS was used as a positive control and the final concentrations tested for CAS ranged from 0.03–31.3 μg/mL. Briefly, overnight yeast cultures were grown in yeast peptone dextrose (YPD) broth and the cell density was adjusted to an OD600 of 0.12 (~1 × 10^6 CFU/mL) by using a spectrophotometer. Yeast cell suspensions were further diluted to achieve 1–5 × 10^3 CFU/mL in RPMI 1640 medium, and 100 μL of these yeast cells was added to 96-well microtiter plates containing RPMI 1640 medium and titrated compounds. Each test was performed in triplicate. The plates were incubated at 35 °C for 48 h.

[2] = tested on: C. albicans ATCC MYA-1003(R) (strain G); experiment: MIC, broth microdilution (CLSI M27-A3), yeast strain G; format: cell-based; conditions: Candida albicans; MIC-0, strain G, 35 °C 48 h
Method: as §1

[3] = tested on: Aspergillus nidulans ATCC 38163 (strain L); experiment: MIC, filamentous fungi (CLSI M38-A2), strain L; format: cell-based; conditions: Aspergillus nidulans, ATCC38163, 72 h, MIC-0, strain L, 35 °C 72 h; read-out: MIC
Method: (§2) The spores were harvested from sporulating cultures growing on potato dextrose agar (PDA) by filtration through sterile glass wool and enumerated by using a hemocytometer (Hausser Scientific, Horsham, PA, USA) to obtain the desired inoculum size. Two-fold serial dilutions of compounds 3, 4, 7a, 7b, 9, and 16, as well as CAS and TOB were made in sterile 96-well microtiter plates to obtain the final concentration range of 0.24–62.5 μg/mL for TOB and TOB derivatives as well as 0.03–31.3 μg/mL for CAS in the RPMI 1640 medium. The spore suspensions were added to the wells to afford a final concentration of 5 × 10^5 spores/mL. The plates were incubated at 35 °C for 72 h. […] Each test was performed in triplicate.

[4] = tested on: Candida glabrata clinical isolate CG3; experiment: MIC, broth microdilution (CLSI M27-A3), CG3; format: cell-based; conditions: Nakaseomyces glabratus; MIC-0, CG3, 35 °C 48 h
Method: as §1

[5] = tested on: C. albicans ATCC MYA-2876(S) (strain C); experiment: MIC, broth microdilution (CLSI M27-A3), yeast strain C; format: cell-based; conditions: Candida albicans; MIC-0, strain C, 35 °C 48 h
Method: as §1

[6] = tested on: Candida glabrata clinical isolate CG2; experiment: MIC, broth microdilution (CLSI M27-A3), CG2; format: cell-based; conditions: Nakaseomyces glabratus; MIC-0, CG2, 35 °C 48 h
Method: as §1

[7] = tested on: Candida parapsilosis ATCC 22019 (strain J); experiment: MIC, broth microdilution (CLSI M27-A3), yeast strain J; format: cell-based; conditions: Lodderomyces parapsilosis, ATCC22019; MIC-0, strain J, 35 °C 48 h
Method: as §1

[8] = tested on: Candida parapsilosis clinical isolate CP3; experiment: MIC, broth microdilution (CLSI M27-A3), CP3; format: cell-based; conditions: MIC-0, CP3, 35 °C 48 h
Method: as §1

[9] = tested on: Cryptococcus neoformans clinical isolate CN2; experiment: MIC, broth microdilution (CLSI M27-A3), CN2; format: cell-based; conditions: MIC-0, CN2, 35 °C 48 h
Method: as §1

[10] = tested on: Cryptococcus neoformans clinical isolate CN1; experiment: MIC, broth microdilution (CLSI M27-A3), CN1; format: cell-based; conditions: MIC-0, CN1, 35 °C 48 h
Method: as §1

[11] = tested on: Aspergillus flavus ATCC MYA-3631 (strain K); experiment: MIC, filamentous fungi (CLSI M38-A2), strain K; format: cell-based; conditions: Aspergillus flavus, 72 h, MIC-0, strain K, 35 °C 72 h; read-out: MIC
Method: as §2

[12] = tested on: seven C. albicans strains (A-G); experiment: MIC across the panel of seven C. albicans strains; format: cell-based; conditions: Candida albicans; across all seven C. albicans strains tested
Method: as §1

[13] = tested on: nine non-albicans Candida strains (H-J, CG1-3, CP1-3); experiment: MIC across the panel of nine non-albicans Candida strains; format: cell-based, Candida glabrata, Candida krusei, Candida parapsilosis
Method: as §1

[14] = tested on: Candida glabrata clinical isolate CG1; experiment: MIC, broth microdilution (CLSI M27-A3), CG1; format: cell-based; conditions: Nakaseomyces glabratus; MIC-0, CG1, 35 °C 48 h
Method: as §1

[15] = tested on: C. albicans ATCC MYA-2310(S) (strain E); experiment: MIC, broth microdilution (CLSI M27-A3), yeast strain E; format: cell-based; conditions: Candida albicans; MIC-0, strain E, 35 °C 48 h
Method: as §1

[16] = tested on: Candida parapsilosis clinical isolate CP2; experiment: MIC, broth microdilution (CLSI M27-A3), CP2; format: cell-based; conditions: Lodderomyces parapsilosis; MIC-0, CP2, 35 °C 48 h
Method: as §1

[17] = tested on: Candida krusei ATCC 6258 (strain I); experiment: MIC, broth microdilution (CLSI M27-A3), yeast strain I; format: cell-based; conditions: Pichia kudriavzevii, ATCC6258; MIC-0, strain I, 35 °C 48 h
Method: as §1

[18] = tested on: Candida parapsilosis clinical isolate CP1; experiment: MIC, broth microdilution (CLSI M27-A3), CP1; format: cell-based; conditions: Lodderomyces parapsilosis; MIC-0, CP1, 35 °C 48 h
Method: as §1

[19] = tested on: Candida glabrata ATCC 2001 (strain H); experiment: MIC, broth microdilution (CLSI M27-A3), yeast strain H; format: cell-based; conditions: Nakaseomyces glabratus, ATCC2001; MIC-0, strain H, 35 °C 48 h
Method: as §1

[20] = tested on: Cryptococcus neoformans clinical isolate CN3; experiment: MIC, broth microdilution (CLSI M27-A3), CN3; format: cell-based; conditions: MIC-0, CN3, 35 °C 48 h
Method: as §1

[21] = tested on: C. albicans ATCC MYA-1237(R) (strain F); experiment: MIC, broth microdilution (CLSI M27-A3), yeast strain F; format: cell-based; conditions: Candida albicans; MIC-0, strain F, 35 °C 48 h
Method: as §1

[22] = tested on: C. albicans ATCC 10231 (strain A); experiment: MIC, broth microdilution (CLSI M27-A3), yeast strain A; format: cell-based, Candida albicans
Method: as §1

[23] = tested on: C. albicans ATCC 64124 (strain B); experiment: MIC, broth microdilution (CLSI M27-A3), yeast strain B; format: cell-based; conditions: Candida albicans, ATCC64124; MIC-0, strain B, 35 °C 48 h
Method: as §1

[24] = tested on: Aspergillus terreus ATCC MYA-3633 (strain M); experiment: MIC, filamentous fungi (CLSI M38-A2), strain M; format: cell-based; conditions: MIC-0, strain M, 35 °C 72 h
Method: as §2

[25] = tested on: C. neoformans (strain CN1); experiment: Time-kill assay, CN1; format: cell-based, Cryptococcus neoformans; conditions: controls TOB 15.6 μg/mL and VOR 1× MIC, 24-h period
Method: (§3) Time-kill assays were used to assess the inhibitory efficiency of 7b against three yeast strains, C. albicans ATCC 10231 (strain A), C. parapsilosis ATCC 22019 (strain J), and C. neoformans clinical isolate CN1. The protocol for time-kill assays followed methods previously described with minor modifications. Yeast cultures were grown overnight in YPD broth at 35 °C with shaking (200 rpm). A working stock of fungal cells was made by diluting cultures in RPMI 1640 medium to an OD600 of 0.125, approximately 1 × 10^6 CFU/mL. From the working stock, 100 μL of cells was added to 4.9 mL of RPMI 1640 medium in sterile culture tubes, making the starting fungal cell concentration […]. Compounds were then added to the fungal cells. The treatment conditions included sterile control, growth control, TOB (parent; negative control), voriconazole (VOR) at 1× MIC (positive control), 7b at 1× and 4× MIC. The treated fungal cultures were incubated at 35 °C with shaking (200 rpm) for 24 h. The samples were taken from the different treatments at regular time points (0, 3, 6, 9, 12, and 24 h.) and plated in duplicates. For each time point, cultures were vortexed, 100 μL of culture was aspirated, and 10-fold serial dilutions were made in sterile ddH2O. From the appropriate dilutions, 100 μL of fungal suspension was spread on PDA plates and incubated at 35 °C for 48 h before the colony counts were determined. At 24 h, 50 μL of 1 mM resazurin was added to the treatments and incubated at 35 °C with rotation for 2 h in the dark for visual inspection. Experiments were performed in duplicate.

[26] = tested on: C. albicans ATCC 10231 (strain A); experiment: Time-kill assay, strain A; format: cell-based, Candida albicans
Method: as §3

MIC [1]: 62.5 µg/mL (≈ 98.3 µM)
MIC [2]: 62.5 µg/mL (≈ 98.3 µM)
MIC [3]: 3.9 µg/mL (≈ 6.13 µM)
MIC [4]: 62.5 µg/mL (≈ 98.3 µM)
MIC [5]: > 62.5 µg/mL
MIC [6]: 62.5 µg/mL (≈ 98.3 µM)
MIC [7]: 31.3 µg/mL (≈ 49.2 µM)
MIC [8]: 62.5 µg/mL (≈ 98.3 µM)
MIC [9]: 0.975 µg/mL (≈ 1.53 µM)
MIC [10]: 1.95 µg/mL (≈ 3.07 µM)
MIC [11]: > 62.5 µg/mL
MIC [12]: ≥ 62.5 µg/mL
MIC [13]: 31.3 to 62.5 µg/mL (≈ 49.2 to 98.3 µM)
MIC [14]: > 62.5 µg/mL
MIC [15]: 62.5 µg/mL (≈ 98.3 µM)
MIC [16]: 62.5 µg/mL (≈ 98.3 µM)
MIC [17]: 31.3 µg/mL (≈ 49.2 µM)
MIC [18]: 62.5 µg/mL (≈ 98.3 µM)
MIC [19]: 62.5 µg/mL (≈ 98.3 µM)
MIC [20]: 3.9 µg/mL (≈ 6.13 µM)
MIC [21]: 62.5 µg/mL (≈ 98.3 µM)
MIC ([22]; Candida albicans, ATCC10231, MIC-0, strain A, 35 °C 48 h): 62.5 µg/mL (≈ 98.3 µM)
MIC [23]: 62.5 µg/mL (≈ 98.3 µM)
MIC [24]: > 62.5 µg/mL
Compound: CCCCCCCCCCCCOCC1OC(OC2C(N)CC(N)C(OC3OC(CN)C(O)CC3N)C2O)C(O)C(N)C1O [Compound 16, O-3-Amino-3-deoxy-6-O-dodecyl-α-D-glucopyranosyl-(1→6)-O-[2,6-diamino-2,3,6-trideoxy-α-D-ribo-hexopyranosyl-(1→4)]-2-deoxy-D-streptamine]

Compound: C[C@@H](c1ncncc1F)[C@](O)(Cn1cncn1)c1ccc(F)cc1F [VOR, voriconazole, reference compound]
effect on growth (time-kill, in words) [25]: little to no growth inhibitory effect
1× MIC value ([22]; as used in the time-kill study, strain A): 1.0 µg/mL
reduction of CFU ([26]; 1× MIC (7b 3.9 μg/mL; VOR 1.0 μg/mL), after 9 h of treatment): ≥ 2 log10
effect on growth (time-kill, in words) ([26]; 24-h period, TOB 15.6 μg/mL, VOR 1× MIC 1.0 μg/mL): maintained a fungistatic activity up to the 24-h period
